Source: article PMC4184702 (Pharmacology Research & Perspectives, 2014)
“Also recorded” adds a separate entry of the source.

Legend:
[1] = system: Male C57 BL6/J mice
Protocol: Male C57 BL6/J (from Jackson Laboratories) mice were used for these studies. Upon receipt at 6 weeks of age, mice were single-housed in OptiMICE ventilated cages and acclimated to the colony room for 1 week prior to beginning of the dosing regimen at 7 weeks of age.
Mice were tested in NSF on day 29 of treatment. Eighteen hours prior to behavioral testing, all food was removed from the home cage. The NSF test was carried out during a 15-min period. The test chamber consists of a rectangular (14″ × 20″ × 6″) plastic box. The chamber floor is covered with bedding (∼0.5″). At the time of testing, animals were placed in the left front corner of the chamber and two food pellets (regular chow) were placed on a laminated white paper circle (13 cm in diameter) positioned in the center of the test chamber. The latency to eat is defined by the animal holding the food with one or both paws and taking a bite of the pellet and staying in the center eating for at least 5 sec. The mice were videotaped and tapes were scored by two trained observers blind to the treatments. […] Upon completion of NSF, about 50 60 min after the pretreatment, mice were decapitated and all animals from all treatment groups except from the imipramine group were processed for collection of trunk blood and whole-brain tissue. […]

[2] = target: T1, CYP2C19 (Homo sapiens, UniProt P33261); assay: CYP2C19 inhibition, HLM, omeprazole substrate; assay type: in vitro ADME; conditions: 1.0E-05 M
T1 construct: from tissue; host or cells: human liver microsomes (HLM)
Text: Supplement prp20002-e00026-sd1.doc, table 3: Table 3.

[3] = system: GABAB; assay: PDSP primary binding, GABAB; conditions: 10 µM, n = 4
Protocol: (§1) For experimental details, please refer to the Psychoactive Drug Screening Program (PDSP) web site http://pdsp.med.unc.edu/.
(§2) ^a The default concentration for primary binding experiments is 10 µM (n = 4). ^b Negative inhibition represents a stimulation of binding. ^c BZPR: Benzodiazepine Receptors (rat brain site). ^d DOR: Delta Opioid Receptor; KOR: Kappa Opioid Receptor; MOR: Mu Opioid Receptor. ^e DAT: Dopamine Transporter; NET: Norepinephrine Transporter; SERT: Serotonin Transporter. ^f NMDA: N-methyl-D-aspartate receptor.

[4] = target: T2, D2 dopamine receptor (Homo sapiens, UniProt P14416); assay: PDSP primary binding, D2; conditions: n = 4, read-out: Inhibition (primary binding competition efficacy), D2
T2 construct: purchased NIMH Psychoactive Drug Screening Program (PDSP)
Protocol: as §1, §2

[5] = target: T3, 5-HT6 (Homo sapiens, UniProt P50406); assay: PDSP primary binding, 5-HT6; conditions: n = 4, read-out: Inhibition (primary binding competition efficacy), 5-HT6
T3 construct: purchased NIMH Psychoactive Drug Screening Program (PDSP)
Protocol: as §1, §2

[6] = target: T4, α1D adrenergic receptor (Homo sapiens, UniProt P25100); assay: PDSP primary binding, α1D; conditions: n = 4, read-out: Inhibition (primary binding competition efficacy), α1D
T4 construct: purchased NIMH Psychoactive Drug Screening Program (PDSP)
Protocol: as §1, §2

[7] = target: T5, D4 dopamine receptor (Homo sapiens, UniProt P21917); assay: PDSP primary binding, D4; conditions: n = 4, read-out: Inhibition (primary binding competition efficacy), D4
T5 construct: purchased NIMH Psychoactive Drug Screening Program (PDSP)
Protocol: as §1, §2

[8] = target: T6, α1B adrenergic receptor (Homo sapiens, UniProt P35368); assay: PDSP primary binding, α1B; conditions: n = 4, read-out: Inhibition (primary binding competition efficacy), α1B
T6 construct: purchased NIMH Psychoactive Drug Screening Program (PDSP)
Protocol: as §1, §2

[9] = target: T7, M2 muscarinic receptor (Homo sapiens, UniProt P08172); assay: PDSP primary binding, M2; conditions: n = 4, read-out: Inhibition (primary binding competition efficacy), M2
T7 construct: purchased NIMH Psychoactive Drug Screening Program (PDSP)
Protocol: as §1, §2

[10] = Bacterial cytotoxicity, strain TA100; assay type: cell-based; conditions: Salmonella typhimurium, bacterial tester strain TA100 without S9, read-out: Cytotoxicity (% of Control Values)
Text: Supplement prp20002-e00026-sd1.doc, table 4: Table 4.

[11] = target: T8, 5-HT2A (Homo sapiens, UniProt P28223); assay: PDSP primary binding, 5-HT2A; conditions: n = 4, read-out: Inhibition (primary binding competition efficacy), 5-HT2A
T8 construct: purchased NIMH Psychoactive Drug Screening Program (PDSP)
Protocol: as §1, §2

[12] = system: Male C57 BL6 mice; assay: SmartCube test; assay type: in vivo, mouse
Protocol: Male C57 BL6 mice (Taconic Farms) were used in the SmartCube® assay (PsychoGenics Inc., Tarrytown, NY). Mice were received at 7 weeks old and group-housed in OptiMICE ventilated cages with four mice/cage. Mice were acclimated to the colony room for at least 1 week prior to the first injections. All animals were tested in SmartCube® at 8 10 weeks old.
To acquire initial in vivo evaluation of our nicotinic ligands for behavioral effects relevant to psychiatric diseases, we used SmartCube®, an automated system in which mouse behavior is captured by digital video using novel, proprietary hardware that presents multiple challenges in a single test session and is analyzed with computer algorithms. Digital videos of the subjects are processed with computer vision algorithms to extract more than 1400 dependent measures including frequency and duration of behavioral states such as grooming, rearing, etc., and many other features obtained during the test session. Using machine learning techniques chosen to best separate pharmacological effects of reference compounds, the behavioral signatures of the mutant mice are then assessed quantitatively.
The most dominant of the features collected that define the drug class signature are identified and ranked using complex proprietary bioinformatics algorithms. The outcome of a SmartCube® run is a set of more than 1400 features (behavioral parameters) that can be used for various analyses. Many of these features are correlated (e.g., rearing counts and supported rearing counts). Therefore, we form statistically independent combinations of the original features (further referred to as decorrelated features) that discriminate between the groups more effectively. Next, we apply a proprietary feature ranking algorithm to score each feature discrimination power to weight each feature change by its relevance. The data obtained in this way are used to define drug signatures for known reference compounds and to establish therapeutic class signatures against which a test sample can be compared. The neuropharmacological effects of a test compound can be predicted by similarity to major classes of compounds, such as antipsychotics, anxiolytics, and antidepressants (Roberds et al. [2011]).
Mice are taken in their home cage to the SmartCube® suite of experimental rooms where they remain until they are placed in the apparatus for a single testing session. A standard SmartCube® protocol runs for a single session (∼45 min). After the session mice are group-housed again and brought back to the colony room. Any abnormal behavior is noted. […] At least 12 mice were used in each treatment group.

T3 sequence (P50406 whole entry): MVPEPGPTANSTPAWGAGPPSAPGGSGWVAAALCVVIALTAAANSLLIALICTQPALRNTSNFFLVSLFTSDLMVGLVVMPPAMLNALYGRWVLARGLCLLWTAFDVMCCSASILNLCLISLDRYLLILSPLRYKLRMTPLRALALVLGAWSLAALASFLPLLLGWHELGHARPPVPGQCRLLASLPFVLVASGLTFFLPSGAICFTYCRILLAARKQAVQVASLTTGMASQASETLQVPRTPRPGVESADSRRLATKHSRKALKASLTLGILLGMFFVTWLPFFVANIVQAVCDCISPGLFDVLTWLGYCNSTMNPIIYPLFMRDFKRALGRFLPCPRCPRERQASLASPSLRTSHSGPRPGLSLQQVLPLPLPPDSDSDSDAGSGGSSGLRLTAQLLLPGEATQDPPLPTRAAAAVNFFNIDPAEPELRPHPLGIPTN
T7 sequence (P08172 whole entry): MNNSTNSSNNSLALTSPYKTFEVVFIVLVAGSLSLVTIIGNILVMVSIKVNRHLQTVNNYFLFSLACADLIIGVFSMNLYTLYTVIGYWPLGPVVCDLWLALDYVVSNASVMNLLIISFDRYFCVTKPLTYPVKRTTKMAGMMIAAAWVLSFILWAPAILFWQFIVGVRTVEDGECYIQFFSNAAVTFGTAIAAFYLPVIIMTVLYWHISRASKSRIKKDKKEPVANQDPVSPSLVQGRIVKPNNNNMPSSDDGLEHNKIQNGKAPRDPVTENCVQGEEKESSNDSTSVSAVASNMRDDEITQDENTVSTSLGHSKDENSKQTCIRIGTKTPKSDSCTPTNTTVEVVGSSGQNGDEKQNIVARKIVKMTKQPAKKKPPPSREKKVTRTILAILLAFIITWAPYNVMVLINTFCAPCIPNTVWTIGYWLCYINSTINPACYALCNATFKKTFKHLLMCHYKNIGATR
T8 sequence (P28223 whole entry): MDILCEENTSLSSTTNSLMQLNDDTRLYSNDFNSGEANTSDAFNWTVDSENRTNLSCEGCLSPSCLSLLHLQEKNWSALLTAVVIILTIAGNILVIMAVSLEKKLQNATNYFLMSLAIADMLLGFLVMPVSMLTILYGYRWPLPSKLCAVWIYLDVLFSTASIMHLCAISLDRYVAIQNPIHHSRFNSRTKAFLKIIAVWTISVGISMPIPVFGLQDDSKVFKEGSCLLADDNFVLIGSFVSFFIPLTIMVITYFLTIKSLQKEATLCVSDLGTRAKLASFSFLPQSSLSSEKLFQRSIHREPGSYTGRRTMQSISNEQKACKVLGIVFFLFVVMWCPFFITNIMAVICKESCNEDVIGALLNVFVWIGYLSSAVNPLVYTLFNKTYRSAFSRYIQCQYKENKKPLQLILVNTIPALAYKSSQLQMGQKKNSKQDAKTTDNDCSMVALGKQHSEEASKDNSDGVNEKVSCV
T5 sequence (P21917 whole entry): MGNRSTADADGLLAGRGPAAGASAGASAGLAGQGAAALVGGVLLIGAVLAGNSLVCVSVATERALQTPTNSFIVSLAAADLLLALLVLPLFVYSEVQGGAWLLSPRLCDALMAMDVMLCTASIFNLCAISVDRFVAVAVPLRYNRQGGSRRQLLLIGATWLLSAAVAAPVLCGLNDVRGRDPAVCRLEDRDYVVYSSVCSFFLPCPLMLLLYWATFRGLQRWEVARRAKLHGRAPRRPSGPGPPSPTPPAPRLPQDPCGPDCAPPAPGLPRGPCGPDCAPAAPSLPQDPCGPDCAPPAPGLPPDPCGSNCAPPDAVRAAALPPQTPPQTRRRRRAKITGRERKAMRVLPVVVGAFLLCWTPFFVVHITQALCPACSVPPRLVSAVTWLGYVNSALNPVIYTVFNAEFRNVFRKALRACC
T6 sequence (P35368 whole entry): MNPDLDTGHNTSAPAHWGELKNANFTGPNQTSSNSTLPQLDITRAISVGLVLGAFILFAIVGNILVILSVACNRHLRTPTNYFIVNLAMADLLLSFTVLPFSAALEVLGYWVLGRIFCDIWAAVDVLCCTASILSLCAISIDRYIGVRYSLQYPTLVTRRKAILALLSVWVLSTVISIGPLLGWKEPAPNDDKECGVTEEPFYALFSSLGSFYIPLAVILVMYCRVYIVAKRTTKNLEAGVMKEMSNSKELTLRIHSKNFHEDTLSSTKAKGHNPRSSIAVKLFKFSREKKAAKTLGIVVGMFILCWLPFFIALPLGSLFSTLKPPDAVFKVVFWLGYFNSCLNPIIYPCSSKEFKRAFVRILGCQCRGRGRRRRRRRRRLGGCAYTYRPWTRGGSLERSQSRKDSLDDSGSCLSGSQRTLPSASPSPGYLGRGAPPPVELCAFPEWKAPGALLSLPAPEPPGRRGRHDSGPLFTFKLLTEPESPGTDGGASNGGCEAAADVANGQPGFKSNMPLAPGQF
T1 sequence (P33261 whole entry): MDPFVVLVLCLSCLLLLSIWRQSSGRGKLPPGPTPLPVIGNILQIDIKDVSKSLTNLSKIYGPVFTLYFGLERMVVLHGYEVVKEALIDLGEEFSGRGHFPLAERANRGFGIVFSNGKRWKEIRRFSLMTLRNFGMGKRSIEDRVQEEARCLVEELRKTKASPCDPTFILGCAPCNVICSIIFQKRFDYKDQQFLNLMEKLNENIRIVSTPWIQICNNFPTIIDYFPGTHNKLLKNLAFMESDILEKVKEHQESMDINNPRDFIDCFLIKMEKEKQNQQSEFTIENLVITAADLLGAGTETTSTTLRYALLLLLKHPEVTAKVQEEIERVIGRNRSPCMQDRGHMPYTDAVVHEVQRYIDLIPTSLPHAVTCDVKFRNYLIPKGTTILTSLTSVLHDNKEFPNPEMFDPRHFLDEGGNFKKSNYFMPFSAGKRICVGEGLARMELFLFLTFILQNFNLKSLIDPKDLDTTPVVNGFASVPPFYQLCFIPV
T4 sequence (P25100 whole entry): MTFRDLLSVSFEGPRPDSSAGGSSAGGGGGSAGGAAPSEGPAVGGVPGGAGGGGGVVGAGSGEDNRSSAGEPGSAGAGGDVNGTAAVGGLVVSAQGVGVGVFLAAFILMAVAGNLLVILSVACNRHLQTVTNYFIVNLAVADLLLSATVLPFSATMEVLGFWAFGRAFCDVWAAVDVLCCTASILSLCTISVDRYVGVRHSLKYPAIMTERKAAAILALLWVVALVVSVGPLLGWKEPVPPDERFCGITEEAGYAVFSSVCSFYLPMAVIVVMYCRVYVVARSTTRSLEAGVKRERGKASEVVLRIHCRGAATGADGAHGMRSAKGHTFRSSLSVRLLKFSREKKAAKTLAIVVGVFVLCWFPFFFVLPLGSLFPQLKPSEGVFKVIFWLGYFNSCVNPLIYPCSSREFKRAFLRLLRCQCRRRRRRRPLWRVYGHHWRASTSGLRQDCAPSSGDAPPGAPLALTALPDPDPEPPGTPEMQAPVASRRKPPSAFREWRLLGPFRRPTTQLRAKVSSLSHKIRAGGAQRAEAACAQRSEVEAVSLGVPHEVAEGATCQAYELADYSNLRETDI
T2 sequence (P14416 whole entry): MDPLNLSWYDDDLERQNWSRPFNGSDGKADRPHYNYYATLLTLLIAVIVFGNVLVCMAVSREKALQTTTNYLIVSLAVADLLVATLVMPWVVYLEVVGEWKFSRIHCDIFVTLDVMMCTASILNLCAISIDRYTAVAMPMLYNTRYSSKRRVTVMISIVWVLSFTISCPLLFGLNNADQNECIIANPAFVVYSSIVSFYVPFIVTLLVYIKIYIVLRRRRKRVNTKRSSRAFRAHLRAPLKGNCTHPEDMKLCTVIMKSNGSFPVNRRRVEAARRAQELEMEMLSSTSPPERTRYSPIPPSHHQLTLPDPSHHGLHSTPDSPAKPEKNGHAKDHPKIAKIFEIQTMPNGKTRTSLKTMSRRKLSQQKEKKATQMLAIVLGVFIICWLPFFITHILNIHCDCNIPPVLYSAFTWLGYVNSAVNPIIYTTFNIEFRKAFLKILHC

With OCCc1cc(-c2cncc(OC[C@@H]3CCN3)c2)on1 [LF-3-88, 2-[5-[5-(2(S)-azetidinylmethoxyl)-3-pyridyl]-3-isoxazolyl]ethanol] the “treatment effect on body weight” value ([1]; 4-week administration) was “did not find a significant treatment effect”, the “behavioral changes / tolerability in NSF paradigm” value ([1]; 28 days oral administration, 5 and 10 mg/kg) was “No obvious behavioral changes” and the “CYP2C19 Inhibition” value [2] was 10%. The “Inhibition (primary binding competition efficacy), GABAB” value [3] was 1.1%, the inhibition at 10 µM [4] was 17.2% and the inhibition at 10 µM [5] was -1.9%. The inhibition at 10 µM [6] was -3.4%, the inhibition at 10 µM [7] was -2.5% and the inhibition at 10 µM [8] was -1.8%. The inhibition at 10 µM [9] was 6.8%, the viability at 0.0001 M ([10]; strain TA100 – S9, 1.0E-04 M) was 139% and the viability at 10 µM ([10]; strain TA100 – S9, 1.0E-05 M) was 103%. It also gave a viability at 1.25 µM ([10]; strain TA100 – S9, 1.25E-06 M) of 102%, a viability at 25 µM ([10]; strain TA100 – S9, 2.5E-05 M) of 115% and a viability at 2.5 µM ([10]; strain TA100 – S9, 2.5E-06 M) of 99%. For the same compound, the viability at 50 µM ([10]; strain TA100 – S9, 5.0E-05 M) was 125%, the viability at 5 µM ([10]; strain TA100 – S9, 5.0E-06 M) was 103% and the viability at 625 nM ([10]; strain TA100 – S9, 6.25E-07 M) was 101%. For the same compound, the inhibition at 10 µM [11] was 34.1%, the “SmartCube antidepressant (green) component” value ([12]; 5 and 10 mg/kg, i.p.) was “antidepressive-like behavioral signatures; also recorded: potential antidepressive-like behavior; also recorded: most pronounced” and the SmartCube side effects ([12]; 5 and 10 mg/kg, i.p.) was “Minimal side effects”. For the same compound, the “SmartCube side effect signature” value ([12]; both tested doses (5 and 10 mg/kg)) was “less than 10%” and the SmartCube behavioral signature ([12]; both tested doses, i.p., 15 min preinjection) was “robust CNS drug-like signatures”.
